Laboratory results taken from patent US20170334927A1 (Shanghai Sun-sail Pharmaceutical Science & Technology Co., …, priority 2014, published 2017).
In brackets after ≈: the same amount, converted by molar mass.

Experiments:
Experiment in all cases: microbe, parasite or virus in culture
Type in all cases: cell-based
[1] = tested on: drug-resistant Mycobacterium tuberculosis 246 (streptomycin-resistant); details: for MIC: Mycobacterium tuberculosis, read-out: MIC, drug-resistant bacterium 246 (S single-resistant); for MIC value, times of that of the control drug PA-824, strain 246: relative to PA-824
[2] = tested on: drug-resistant Mycobacterium tuberculosis 261 (rifampicin-resistant); details: for MIC: Mycobacterium tuberculosis, read-out: MIC, drug-resistant bacterium 261 (R single-resistant); for MIC value, times of that of the control drug PA-824, strain 261: relative to PA-824
[3] = tested on: drug-resistant Mycobacterium tuberculosis 242 (isoniazid-resistant); details: for MIC: Mycobacterium tuberculosis, read-out: MIC, drug-resistant bacterium 242 (H single-resistant); for MIC value, times of that of the control drug PA-824, strain 242: relative to PA-824

| SMILES | MIC [1] | MIC value, times of that of the control drug PA-824, strain 246 [1] | MIC [2] | MIC value, times of that of the control drug PA-824, strain 261 [2] | MIC [3] | MIC value, times of that of the control drug PA-824, strain 242 [3] |
| --- | --- | --- | --- | --- | --- | --- |
| O=[N+]([O-])c1cn2c(n1)OC[C@@H](NCc1ccc(N3CCC(Oc4ccc(OC(F)(F)F)cc4)CC3)nc1)C2 [Compound 1, (S)-2-nitro-N-((6-(4-(4-(trifluoromethoxy)phenoxy)piperidin-1-yl)pyrid-3-yl)methyl)-6,7-dihydro-5H-imidazo[2,1-b][1,3]oxazin-6-amine] | 7.8 ng/mL (≈ 0.0146 µM) | 64 times | 7.8 ng/mL (≈ 0.0146 µM) | 64 times | 7.8 ng/mL (≈ 0.0146 µM) | 128 times |
| O=[N+]([O-])c1cn2c(n1)OC[C@@H](NCc1ccc(N3CCN(c4ccc(OC(F)(F)F)cc4)CC3)nc1)C2 [Compound 4, (S)-2-nitro-N-((6-(4-(4-(trifluoromethoxy)phenyl)piperazin-1-yl)pyrid-3-yl)methyl)-6,7-dihydro-5H-imidazo[2,1-b][1,3]oxazin-6-amine] | 1.95 ng/mL (≈ 0.00375 µM) | 256 times | 1.95 ng/mL (≈ 0.00375 µM) | 256 times | 1.95 ng/mL (≈ 0.00375 µM) | 512 times |
| CC1CN(c2ccc(CN[C@@H]3COc4nc([N+](=O)[O-])cn4C3)cn2)CCN1c1ccc(OC(F)(F)F)cc1 (stereo partly drawn) [Compound 5, (3S)—N-((6-(3-methyl-4-(4-(trifluoromethoxy)phenyl)piperazin-1-yl)pyrid-3-yl)methyl)-7-nitro-3,4-dihydro-2H-imidazo[2,1-b][1,3]oxazin-3-amine] | 1.95 ng/mL (≈ 0.00366 µM) | – | 1.95 ng/mL (≈ 0.00366 µM) | – | 3.9 ng/mL (≈ 0.00731 µM) | – |
| CC1CN(c2ccc(OC(F)(F)F)cc2)CCN1c1ccc(CN[C@@H]2COc3nc([N+](=O)[O-])cn3C2)cn1 (stereo partly drawn) [Compound 6, (3S)—N-((6-(2-methyl-4-(4-(trifluoromethoxy)phenyl)piperazin-1-yl)pyrid-3-yl)methyl)-7-nitro-3,4-dihydro-2H-imidazo[2,1-b][1,3]oxazin-3-amine] | 7.8 ng/mL (≈ 0.0146 µM) | – | 7.8 ng/mL (≈ 0.0146 µM) | – | 15.6 ng/mL (≈ 0.0292 µM) | – |
| N#CC1(c2ccc(OC(F)(F)F)cc2)CCN(c2ccc(CN[C@@H]3COc4nc([N+](=O)[O-])cn4C3)cn2)CC1 [Compound 10, (S)-1-(5-(((7-nitro-3,4-dihydro-2H-imidazo[2,1-b][1,3]oxazin-3-yl)amino)methyl)pyridin-2-yl)-4-(4-(trifluoromethoxy)phenyl)piperidine-4-carbonitrile] | 1.95 ng/mL (≈ 0.00359 µM) | 256 times | 1.95 ng/mL (≈ 0.00359 µM) | 256 times | 1.95 ng/mL (≈ 0.00359 µM) | 512 times |
| O=[N+]([O-])c1cn2c(n1)OC[C@@H](NCc1ccc(N3C4CCC3CC(Oc3ccc(OC(F)(F)F)cc3)C4)nc1)C2 (stereo partly drawn) [Compound 14, (6S)-2-nitro-N-((6-(3-(4-(trifluoromethoxy)phenoxy)-8-azabicyclo[3.2.1]octan-8-yl)pyrid-3-yl)methyl)-6,7-dihydro-5H-imidazo[2,1-b][1,3]oxazin-6-amine] | 7.8 ng/mL (≈ 0.0139 µM) | – | 7.8 ng/mL (≈ 0.0139 µM) | – | 15.6 ng/mL (≈ 0.0278 µM) | – |
| O=[N+]([O-])c1cn2c(n1)OC[C@@H](NCc1cnc(N3CCN(c4ccc(OC(F)(F)F)cc4)CC3)nc1)C2 [Compound 18] | 7.8 ng/mL (≈ 0.015 µM) | 64 times | 7.8 ng/mL (≈ 0.015 µM) | 64 times | 7.8 ng/mL (≈ 0.015 µM) | 128 times |
| CC1CN(c2ncc(CN[C@@H]3COc4nc([N+](=O)[O-])cn4C3)cn2)CCN1c1ccc(OC(F)(F)F)cc1 (stereo partly drawn) [Compound 19] | 7.8 ng/mL (≈ 0.0146 µM) | 64 times | 7.8 ng/mL (≈ 0.0146 µM) | 64 times | 7.8 ng/mL (≈ 0.0146 µM) | 128 times |
| CC1CN(c2ccc(OC(F)(F)F)cc2)CCN1c1ncc(CN[C@@H]2COc3nc([N+](=O)[O-])cn3C2)cn1 (stereo partly drawn) [Compound 20, (3S)—N-((6-(2-methyl-4-(4-(trifluoromethoxy)phenyl)piperazin-1-yl)pyrimidin-3-yl)methyl)-7-nitro-3,4-dihydro-2H-imidazo[2,1-b][1,3]oxazin-3-amine] | 1.95 ng/mL (≈ 0.00365 µM) | 256 times | 1.95 ng/mL (≈ 0.00365 µM) | 256 times | 1.95 ng/mL (≈ 0.00365 µM) | 512 times |
| N#CC1(c2ccc(OC(F)(F)F)cc2)CCN(c2ncc(CN[C@@H]3COc4nc([N+](=O)[O-])cn4C3)cn2)CC1 [Compound 24, (S)-1-(5-(((7-nitro-3,4-dihydro-2H-imidazo[2,1-b][1,3]oxazin-3-yl)amino)methyl)pyrimidin-2-yl)-4-(4-(trifluoromethoxy)phenyl)piperidine-4-carbonitrile] | 3.9 ng/mL (≈ 0.00716 µM) | 128 times | 3.9 ng/mL (≈ 0.00716 µM) | 128 times | 3.9 ng/mL (≈ 0.00716 µM) | 256 times |
| O=[N+]([O-])c1cn2c(n1)OC[C@@H](NCc1cnc(N3CCN(c4ccc(C(F)(F)F)cc4)CC3)nc1)C2 [Compound 31, (S)-2-nitro-N-((2-(4-(4-(trifluoromethyl)phenyl)piperazin-1-yl)pyrimidin-5-yl)methyl)-6,7-dihydro-5H-imidazo[2,1-b][1,3]oxazin-6-amine] | 7.8 ng/mL (≈ 0.0155 µM) | – | 7.8 ng/mL (≈ 0.0155 µM) | – | 7.8 ng/mL (≈ 0.0155 µM) | – |
| Cc1nc(N2CCN(c3ccc(OC(F)(F)F)cc3)CC2)ncc1CN[C@@H]1COc2nc([N+](=O)[O-])cn2C1 [Compound 36] | 7.8 ng/mL (≈ 0.0146 µM) | 64 times | 7.8 ng/mL (≈ 0.0146 µM) | 64 times | 7.8 ng/mL (≈ 0.0146 µM) | 128 times |
| N#Cc1nc(N2CCN(c3ccc(OC(F)(F)F)cc3)CC2)ncc1CN[C@@H]1COc2nc([N+](=O)[O-])cn2C1 [Compound 40, (S)-5-(((2-nitro-6,7-dihydro-5H-imidazo[2,1-b][1,3]oxazin-6-yl)amino)methyl)-2-(4-(4-(trifluoromethoxy)phenyl)piperazin-1-yl)pyrimidine-4-carbonitrile] | 7.8 ng/mL (≈ 0.0143 µM) | 64 times | 7.8 ng/mL (≈ 0.0143 µM) | 64 times | 7.8 ng/mL (≈ 0.0143 µM) | 128 times |
| CN(Cc1cnc(N2CCN(c3ccc(OC(F)(F)F)cc3)CC2)nc1)[C@@H]1COc2nc([N+](=O)[O-])cn2C1 [Compound 44, (S)—N-methyl-2-nitro-N-((2-(4-(4-(trifluoromethoxy)phenyl)piperazin-1-yl)pyrimidin-5-yl)methyl)-6,7-dihydro-5H-imidazo[2,1-b][1,3]oxazin-6-amine] | 1.95 ng/mL (≈ 0.00365 µM) | 256 times | 1.95 ng/mL (≈ 0.00365 µM) | 256 times | 1.95 ng/mL (≈ 0.00365 µM) | 512 times |
| O=[N+]([O-])c1cn2c(n1)OC[C@@H](OCc1ccc(OC(F)(F)F)cc1)C2 [PA-824, reference compound] | 500 ng/mL (≈ 1.39 µM) | – | 500 ng/mL (≈ 1.39 µM) | – | 1000 ng/mL (≈ 2.78 µM) | – |
